Assay results published in patent US10815238B2, “Antimicrobial compounds and methods of making and using the same” (BIOVERSYS AG, priority 2013, dated 2020).

Experiments:
[1] = system: Staphylococcus aureus (S. aureus) 11540 strain; assay: Standard microdilution assay, MIC against S. aureus 11540; type: cell-based; conditions: S. aureus 11540 strain, standard microdilution assay, cutoff 16 micrograms/mL, read-out: MIC S. aureus
Method in brief: (§1)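 MIC determined by broth microdilution following CLSI protocols, with reference strains run in parallel for quality control. Activity scored +/− at a cutoff of 16 micrograms/mL.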

[2] = system: Eschericia coli (E. coli) strain ATCC25922; assay: Standard microdilution assay, MIC against E. coli ATCC25922; type: cell-based; conditions: Escherichia coli; E. coli strain ATCC25922, standard microdilution assay; cutoff 16 micrograms/mL; read-out: MIC E. Coli
Method in brief: as §1

Structure (SMILES)	MIC [1] [µg/mL]	MIC [2] [µg/mL]
C[C@H](N)CCCc1cc(OC(F)(F)F)c(F)c(-c2cc3cn(-c4ccc(C5=NCCCN5)cc4)c(=O)nc3[nH]2)c1 [Compound 565]	< 16	< 16
C[C@H](N)CCCc1cc(Cl)c(F)c(-c2cc3cn(-c4ccc(C(=N)N)cc4)c(=O)nc3[nH]2)c1 [Compound 566]	< 16	> 16
C[C@H](N)CCCc1cc(Cl)c(F)c(-c2cc3cn(-c4ccc([C@@H]5CCC[C@H]6CCN=CN65)cc4)c(=O)nc3[nH]2)c1 [Compound 567]	< 16	> 16
CC1=NCC[C@@H]2CCC[C@@H](c3ccc(-n4cc5cc(-c6cc(CCC[C@H](C)N)cc(Cl)c6F)[nH]c5nc4=O)cc3)N12 [Compound 568]	< 16	> 16
C[C@@H](CN)CN1CC[C@@H](c2cc3cn(-c4ccc(CNCCCNC(=N)N)cc4)c(=O)nc3[nH]2)C1 [Compound 569]	< 16	< 16
C[C@H](CN)CN1CC[C@@H](c2cc3cn(-c4ccc([C@H](C)NCCCNC(=N)N)cc4)c(=O)nc3[nH]2)C1 [Compound 570]	< 16	< 16
C[C@H](CN)COC(=O)N1CC[C@@H](c2cc3cn(-c4ccc(CNCCCNC(=N)N)cc4)c(=O)nc3[nH]2)C1 [Compound 571]	< 16	< 16
C[C@H](N)CCN1CC[C@@H](c2cc3cn(-c4ccc(CNCCCNC(=N)N)cc4)c(=O)nc3[nH]2)C1 [Compound 572]	< 16	< 16
C[C@H](N)CCN1CC[C@@H](c2cc3cn(-c4ccc([C@H](C)NCCCNC(=N)N)cc4)c(=O)nc3[nH]2)C1 [Compound 573]	< 16	< 16
C[C@@H](CN)CN1CC[C@@H](c2cc3cn(-c4ccc(CN5CCCNC5=N)cc4)c(=O)nc3[nH]2)C1 [Compound 574]	> 16	< 16
C[C@@H](CN)CN1CC[C@@H](c2cc3cn(-c4ccc([C@H](C)NCCCNC(=N)N)cc4)c(=O)nc3[nH]2)C1 [Compound 575]	< 16	< 16
C[C@@H](CNC(=N)N)CN1CC[C@@H](c2cc3cn(-c4ccc([C@H](C)NCCCNC(=N)N)cc4)c(=O)nc3[nH]2)C1 [Compound 576]	< 16	< 16
C[C@H](N)CCCN1CC[C@@H](c2cc3cn(-c4ccc(CNCCCNC(=N)N)cc4)c(=O)nc3[nH]2)C1 [Compound 577]	< 16	< 16
C[C@H](N)CCCN1CC[C@@H](c2cc3cn(-c4ccc([C@H](C)NCCCNC(=N)N)cc4)c(=O)nc3[nH]2)C1 [Compound 578]	< 16	< 16
C[C@H](N)CCN1CCC(c2cc3cn(-c4ccc([C@@H]5CCC[C@@H](CCNC(=N)N)N5)cc4)c(=O)nc3[nH]2)C1 (stereo partly drawn) [Compound 579]	< 16	< 16
C[C@@H](CN)CN1CC[C@@H](c2cc3cn(-c4ccc(C(=N)NC5CCCC5)cc4)c(=O)nc3[nH]2)C1 [Compound 580]	> 16	> 16
C[C@@H](CN)CN1CC[C@@H](c2cc3cn(-c4ccc(C(=N)NCC[C@H](C)N)cc4)c(=O)nc3[nH]2)C1 [Compound 581]	< 16	< 16
C[C@H](N)CCCc1cc(-c2cc3cn(CC(=O)NCc4ccc(CNC(=N)N)cc4)c(=O)nc3[nH]2)cc(C(F)(F)F)c1 [Compound 582]	> 16	> 16
